Reference: ChEMBL document CHEMBL1140667, “Pyrrolidino-tetrahydroisoquinolines bearing pendant heterocycles as potent dual H3 antagonist and serotonin transporter inhibitors” (Bioorg Med Chem Lett, 2007)

Tests used:
Histamine H3 receptor [1] = biological target: T1, Histamine H3 receptor (Homo sapiens, UniProt Q9Y5N1); assay: Antagonist activity at human histamine H3 receptor; format: functional; conditions: read-out: pA2 (converted)
Histamine H3 receptor [2] = biological target: T1, Histamine H3 receptor; assay: Binding affinity to human histamine H3 receptor
[3] = Ratio of log AUC in brain to plasma in mouse at 10 mg/kg, ip; format: ADME, organism-based; parameters: dose 10 mg/kg, route intraperitoneal; conditions: brain and plasma, read-out: BPR
[4] = biological target: Sodium-dependent dopamine transporter (Homo sapiens, UniProt Q01959); assay: Binding affinity to DAT
[5] = biological target: Sodium-dependent noradrenaline transporter (Homo sapiens, UniProt P23975); assay: Binding affinity to NET
[6] = biological target: Kappa-type opioid receptor (Homo sapiens, UniProt P41145); assay: Binding affinity to kappa opioid receptor
Rattus norvegicus [7] = assay: Increase in 5-hydroxytryptamine level in rat brain at 3 mg/kg, sc within 4 hrs relative to basal level; format: ADME, organism-based; parameters: dose 3 mg/kg, route subcutaneous; conditions: in vivo
Rattus norvegicus [8] = assay: Increase in dopamine level in rat brain at 3 mg/kg, sc within 4 hrs relative to basal level; format: ADME, organism-based; parameters: dose 3 mg/kg, route subcutaneous; conditions: in vivo
[9] = Plasma concentration in mouse at 10 mg/kg, ip after 15 mins; format: ADME, organism-based; parameters: dose 10 mg/kg, route intraperitoneal
[10] = Drug level in mouse brain at 10 mg/kg, ip after 2 hrs; format: ADME, organism-based; parameters: dose 10 mg/kg, route intraperitoneal; conditions: read-out: Drug uptake
[11] = Mean residence time in mouse plasma at 10 mg/kg, ip; format: ADME, organism-based; parameters: dose 10 mg/kg, route intraperitoneal
[12] = Mean residence time in mouse brain at 10 mg/kg, ip; format: ADME, organism-based; parameters: dose 10 mg/kg, route intraperitoneal

T1 sequence (Q9Y5N1 whole entry): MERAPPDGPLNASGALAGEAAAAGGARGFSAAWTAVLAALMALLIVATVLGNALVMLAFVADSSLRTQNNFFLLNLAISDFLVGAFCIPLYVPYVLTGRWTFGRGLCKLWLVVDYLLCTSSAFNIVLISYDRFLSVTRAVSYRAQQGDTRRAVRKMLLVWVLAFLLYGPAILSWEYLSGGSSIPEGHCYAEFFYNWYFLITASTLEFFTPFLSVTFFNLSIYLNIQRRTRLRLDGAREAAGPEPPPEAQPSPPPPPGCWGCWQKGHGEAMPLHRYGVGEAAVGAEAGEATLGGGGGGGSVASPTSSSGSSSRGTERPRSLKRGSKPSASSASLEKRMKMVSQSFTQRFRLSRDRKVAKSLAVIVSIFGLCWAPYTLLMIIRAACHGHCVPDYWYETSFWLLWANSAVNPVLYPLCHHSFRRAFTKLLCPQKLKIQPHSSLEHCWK
Sodium-dependent dopamine transporter, sequence (Q01959 whole entry): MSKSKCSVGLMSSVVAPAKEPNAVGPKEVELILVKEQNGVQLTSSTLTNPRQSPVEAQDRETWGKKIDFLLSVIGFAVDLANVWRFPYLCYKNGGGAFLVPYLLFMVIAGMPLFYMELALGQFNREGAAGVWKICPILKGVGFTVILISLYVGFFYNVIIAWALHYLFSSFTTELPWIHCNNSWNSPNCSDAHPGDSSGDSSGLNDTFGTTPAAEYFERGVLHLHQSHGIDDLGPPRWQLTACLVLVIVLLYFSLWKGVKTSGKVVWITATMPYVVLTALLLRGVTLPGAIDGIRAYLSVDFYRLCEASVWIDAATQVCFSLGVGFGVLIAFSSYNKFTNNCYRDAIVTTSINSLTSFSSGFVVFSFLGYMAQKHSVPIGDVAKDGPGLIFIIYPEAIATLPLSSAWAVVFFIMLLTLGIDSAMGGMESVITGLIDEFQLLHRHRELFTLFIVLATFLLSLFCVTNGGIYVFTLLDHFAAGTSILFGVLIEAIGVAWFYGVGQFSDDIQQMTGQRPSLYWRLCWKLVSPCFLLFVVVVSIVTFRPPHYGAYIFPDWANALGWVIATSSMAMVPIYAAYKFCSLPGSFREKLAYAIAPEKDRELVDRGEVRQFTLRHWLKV
Sodium-dependent noradrenaline transporter, sequence (P23975 whole entry): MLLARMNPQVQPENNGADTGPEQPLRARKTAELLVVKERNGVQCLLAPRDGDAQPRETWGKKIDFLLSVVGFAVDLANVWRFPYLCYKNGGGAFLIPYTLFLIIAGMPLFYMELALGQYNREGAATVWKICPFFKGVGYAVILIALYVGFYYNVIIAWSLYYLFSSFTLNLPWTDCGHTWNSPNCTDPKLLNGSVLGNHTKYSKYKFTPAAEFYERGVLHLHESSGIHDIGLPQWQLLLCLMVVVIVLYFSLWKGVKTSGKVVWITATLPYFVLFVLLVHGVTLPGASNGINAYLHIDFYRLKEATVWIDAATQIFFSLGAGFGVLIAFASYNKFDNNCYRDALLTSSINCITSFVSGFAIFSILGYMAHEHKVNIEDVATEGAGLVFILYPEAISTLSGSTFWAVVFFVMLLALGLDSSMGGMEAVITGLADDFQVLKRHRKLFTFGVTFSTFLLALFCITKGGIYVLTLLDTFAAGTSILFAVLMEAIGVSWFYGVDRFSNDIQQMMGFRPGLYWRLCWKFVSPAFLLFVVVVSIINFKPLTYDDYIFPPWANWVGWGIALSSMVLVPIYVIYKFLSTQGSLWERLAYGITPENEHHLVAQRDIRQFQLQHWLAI
Kappa-type opioid receptor, sequence (P41145 whole entry): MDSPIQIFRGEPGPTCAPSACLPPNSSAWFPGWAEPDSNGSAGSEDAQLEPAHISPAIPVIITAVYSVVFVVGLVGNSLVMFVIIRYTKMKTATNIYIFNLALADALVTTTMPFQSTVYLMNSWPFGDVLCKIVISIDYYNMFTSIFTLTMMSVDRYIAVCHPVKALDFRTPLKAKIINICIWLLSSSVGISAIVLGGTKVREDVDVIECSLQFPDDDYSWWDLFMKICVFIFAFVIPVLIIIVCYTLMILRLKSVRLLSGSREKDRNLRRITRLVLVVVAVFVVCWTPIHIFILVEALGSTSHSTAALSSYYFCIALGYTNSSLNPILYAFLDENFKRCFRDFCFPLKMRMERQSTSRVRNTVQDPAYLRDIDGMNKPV

Compound	Kb (Histamine H3 receptor [1]) [nM]	Ki (Histamine H3 receptor [2]) [nM]	further results
c1ccn2c([C@@H]3CN4CCC[C@@H]4c4cc(OCCCN5CCOCC5)ccc43)cnc2c1	3.16	2	–
c1cnn(-c2ccc([C@@H]3CN4CCC[C@@H]4c4cc(OCCCN5CCOCC5)ccc43)cc2)c1	3.16	5.3	–
c1cn(-c2ccc([C@@H]3CN4CCC[C@@H]4c4cc(OCCCN5CCOCC5)ccc43)cc2)cn1	3.16	5.7	–
c1cnc([C@@H]2CN3CCC[C@@H]3c3cc(OCCCN4CCOCC4)ccc32)cn1	3.16	4	–
c1cc([C@@H]2CN3CCC[C@@H]3c3cc(OCCCN4CCOCC4)ccc32)[nH]n1	3.16	4	–

Continued by falling Ki (Histamine H3 receptor [2]), values first:

Kb (Histamine H3 receptor [1]) [nM]	Ki (Histamine H3 receptor [2]) [nM]	Compound	further results
3.16	3.7	c1ncc([C@@H]2CN3CCC[C@@H]3c3cc(OCCCN4CCOCC4)ccc32)s1	–
3.16	3.3	c1csc([C@@H]2CN3CCC[C@@H]3c3cc(OCCCN4CCOCC4)ccc32)n1	–
3.16	3	c1cc([C@@H]2CN3CCC[C@@H]3c3cc(OCCCN4CCOCC4)ccc32)cs1	–
3.16	2.7	c1ccc([C@@H]2CN3CCC[C@@H]3c3cc(OCCCN4CCOCC4)ccc32)nc1	–
3.16	1.6	c1cncc([C@@H]2CN3CCC[C@@H]3c3cc(OCCCN4CCOCC4)ccc32)c1	–
3.16	1	c1cc([C@@H]2CN3CCC[C@@H]3c3cc(OCCCN4CCCCC4)ccc32)ccn1	–
3.16	0.8	c1cncc([C@@H]2CN3CCC[C@@H]3c3cc(OCCCN4CCCCC4)ccc32)c1	Kp [3]: 0.75; Ki [4]: 107 nM; Ki [5]: 460 nM; Ki [6]: 74 nM; Activity (Rattus norvegicus [7]): 300%; Activity (Rattus norvegicus [8]): 500%; concentration at 0.25 h [9]: 1430 nM; concentration at 2 h [10]: 920 nM; MRT [11]: 6.57 h; MRT [12]: 31.3 h
3.16	0.8	c1ccc([C@@H]2CN3CCC[C@@H]3c3cc(OCCCN4CCCCC4)ccc32)nc1	–
